Broadly, the CC50 is the concentration at which the toxic effect on the cells reaches its halfway point. Low values mean harm at low concentration, high ones better tolerance by the cells. For orientation: EC50 means the concentration at which the effect is half-maximal.

The subject of series [1] is MT4 cells. Put plainly: Cytotoxicity test. In kind it is cell-based. Conditions: for CC50: Figure 7; for СС50 (MT4): Table S12, nine days. As to the method:
(§1) Green monkey kidney (Vero, Beach, FL, USA) cell line was maintained in 2 × Eagle MEM (“Chumakov FSC R&D IBP RAS”, Russia) with 5% FBS with L-glutamine, penicillin and streptomycin. […] HIV-1 strain NL4-3 was obtained via cell transfection with pNL4-3 3 (ARP2006, NIBSC, Potters Bar, UK).
(§2) MT4 cell suspensions were added to the wells with compound dilutions and DMSO control (approx. 2 × 10^4 cells per well). […] All experimental procedures were performed in two replicates and were repeated two to four times. Mean and SD were calculated with OriginPro 8 (OriginLab, St. Louis, MO, USA).

For series [2], the system named is HIV-1 LTR-III G-quadruplex (FAM/TAMRA-labeled LTR-III). Nature of the series: FRET melting assay, LTR-III G4. To be noted: for LTR-III ΔTm: Table S1 primary screening, ligand:ODN 50:1, singlicate; for LTR-III (average): Table S12, average stabilization; for LTR III stabilization: Figure 7, stabilization group. In kind it is binding. The method, boiled down: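 Melting is followed by FAM fluorescence (ex 495/em 520 nm) while heating at 1 °C/min from 30 to 95 °C. Labelled ODN at 0.5 μM, pre-annealed in 10 mM Li cacodylate, 100 mM KCl, pH 7.4, mixed with ligand at 50:1 (25 μM), or 20:1 and 2:1 for titration. ΔTm is relative to the 0.25% DMSO buffer control.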

Series [3] relates to HIV-1 strain NL4-3 in MT4 cells. Put plainly: Cytopathic effect inhibition test. Type of series: cell-based. Conditions: HIV-1 NL4-3, MT4 cells. Here is the method:
Human T cell leukemia (MT4) cell line was maintained in RPMI-1640 (“Chumakov FSC R&D IBP RAS”, Moscow, Russia) with 10% of fetal bovine serum (FBS, Invitrogen, Waltham, MA, USA), L-glutamine and gentamicin. Green monkey kidney (Vero, Beach, FL, USA) cell line was maintained in 2 × Eagle MEM (“Chumakov FSC R&D IBP RAS”, Russia) with 5% FBS with L-glutamine, penicillin and streptomycin. Cell cultures were incubated in the present of 5% CO2 at 37 °C. HIV-1 strain NL4-3 was obtained via cell transfection with pNL4-3 3 (ARP2006, NIBSC, Potters Bar, UK).
Eight two-fold dilutions of stock solutions of the compounds in two replicates were prepared in RPMI-1640 (“Chumakov FSC R&D IBP RAS”, Russia). Compound dilutions were mixed with equal volumes of the virus suspension containing 100 CCID50 (50% tissue culture infectious dose). Control cells were treated with the same sequential concentrations of DMSO as in compound dilutions. Then, the MT4 cell suspension (approx. 2 × 10^4 cells per well) in RPMI-1640 containing 10% FBS (Invitrogen, South America) was added to experimental mixtures. A final concentration series started from 25 μM. Each experiment contained virus dose titration in the inoculate to assure the acceptable dose-range. After a nine-day incubation (5% CO2, at 37 °C), cytopathic effect (CPE) was visually accessed via microscope. EC50 values were calculated according to the Karber method. All experimental procedures were performed in two replicates and were repeated two to four times. Mean and SD were calculated with OriginPro 8 (OriginLab, St. Louis, MO, USA).
A general note: Cytopathic effects are the visible damage that an infection or toxin causes in cultured cells.

A short description of series [4]: Cytotoxicity test. In kind it is cell-based. Conditions: human, Figure 7. As to the method:
as §1, §2

[5] abbreviates: Figure 7, read-out: Antiviral activity EC50 (HIV).
[6] abbreviates: Table S12, CPE, nine-day incubation, read-out: EC50.

Like-named read-outs stand apart in the source and are kept apart here.

In the case of `COc1ccc(/C=C/C2=NC(=C\c3ccc(O)cc3)/C(=O)N2CCNC(C)=O)cc1` [ccE 4], in series [1], the CC50 is over 25 µM and the “СС50 (MT4)” value is reported as over 25 µM. Moreover, in series [2], the “LTR-III ΔTm” value was determined as 2.8 °C and the “LTR-III (average)” value was 2,8 °C.

As to `COc1cc(O)ccc1/C=C1N=C(/C=C/N(C)C)N(C)C\1=O` [N 1122], in series [1], the 50% cytotoxic concentration (CC50) is over 25 µM and the “СС50 (MT4)” value is on record as over 25 µM. Besides, in series [2], the “LTR-III ΔTm” value was 2.3 °C and the “LTR-III (average)” value was 2,3 °C.

Turning to `COc1ccc(OC)c(C=C2N=C(C)N(C)C2=O)c1` [N 840], in series [1], the CC50 was over 25 µM and the “СС50 (MT4)” value was over 25 µM. In addition, in series [2], the “LTR III stabilization” value is under 1 °C, the “LTR-III ΔTm” value was -2.5 °C and the “LTR-III (average)” value was -1,55 °C.

Consider `COc1ccc(C=C2N=C(CC(C)C)C(=O)N(OC)C2=O)cc1` [M 802], for which, in series [1], the CC50 is 7 ± 3 µM and the “СС50 (MT4)” value was found to be 6.6 ± 3.1 µM. Moreover, in series [2], the “LTR III stabilization” value was under 1 °C, the “LTR-III ΔTm” value was -2.3 °C and the “LTR-III (average)” value is -2,3 °C.

For `COc1c(O)ccc(C=C2N=C(C=Cc3ccncc3)N(C)C2=O)c1O` [N 1069], the EC50 in series [3] (setting [5]) came to 4 ± 2 µM. Further, in series [3] (setting [6]), the EC50 came out at 4.23 ± 1.75 µM. Moreover, in series [1], the midpoint of cytotoxicity, the CC50, lay at 6 ± 2 µM and the “СС50 (MT4)” value amounted to 6.0 ± 2.0 µM. In series [2], the “LTR-III ΔTm” value was determined as 2.7 °C and the “LTR-III (average)” value is 2,7 °C.

`COc1cc(/C=C2N=C(/C=C/c3cc(Br)c(O)c(Br)c3)N(CCN)C\2=O)cc(OC)c1O.Cl` [AR559] displayed a CC50 at 9 days in series [4] (MT4 cells) of over 25 µM. Also, the “СС50 (MT4)” value in series [1] is given as over 25 µM. The “LTR-III (average)” value in series [2] is 1,2 °C.

Regarding `Cc1cn([C@H]2C[C@H](N=[N+]=[N-])[C@@H](CO)O2)c(=O)[nH]c1=O` [AZT, reference compound], the EC50 in series [3] (setting [6]) turned out to be 0.0071 ± 0.00043 µM. The “СС50 (MT4)” value in series [1] stood at 8.0 ± 1.5 µM.

Take `COc1ccc(C=C2N=C(C)N(CC(N)=O)C2=O)cc1` [SA 120]: in series [1], the CC50 is over 25 µM and the “СС50 (MT4)” value is over 25 µM. Further, in series [2], the “LTR III stabilization” value was under 1 °C, the “LTR-III ΔTm” value is -2.1 °C and the “LTR-III (average)” value is -1,35 °C.

With `COc1cc(O)ccc1C=C1N=C(C=Cc2c(F)c(F)c(F)c(F)c2F)N(C)C1=O` [N 1049], in series [3] (setting [5]), the EC50 amounted to 2 ± 1 µM. Further, the EC50 in series [3] (setting [6]) amounted to 2.1 ± 1.4 µM. Further, in series [1], the 50% cytotoxic concentration (CC50) is 5 ± 3 µM and the “СС50 (MT4)” value is 5.2 ± 2.5 µM. In addition, in series [2], the “LTR-III ΔTm” value is 1.8 °C and the “LTR-III (average)” value was 1,8 °C.

Take `COc1ccc(C=C2N=C(Nc3ccc(OC)cc3)N(C)C2=O)cc1` [SA 168]: the “LTR-III ΔTm” value in series [2] is -0.4 °C.

With `COc1cc(C=CC2=NC(=Cc3ccc(O)cc3)C(=O)N2C)cc(OC)c1O` [N 906], in series [1], the CC50 is 7 ± 3 µM and the “СС50 (MT4)” value was determined as 6.6 ± 3.1 µM. Also, in series [2], the “LTR III stabilization” value is under 1 °C, the “LTR-III ΔTm” value came to 0.1 °C and the “LTR-III (average)” value is 0,1 °C.

Regarding `CON1C(=O)C(=Cc2ccc(O)cc2)N=C1C` [GA 16], the “LTR-III ΔTm” value in series [2] was 0.3 °C.

On to `CN1C(=O)C(=Cc2ccc(O)cc2)N=C1C=Cc1cc(Cl)c(O)c(Cl)c1` [N 914], for which, in series [2], the “LTR-III ΔTm” value is -0.8 °C.

Take `CCOC(=O)CN1C(=O)C(=Cc2ccc(Br)cc2)N=C1c1ccccc1` [X 6]: in series [2], the “LTR-III ΔTm” value is -0.1 °C.

Turning to `CC1=NC(=Cc2cccc([N+](=O)[O-])c2)C(=O)N1CC(N)=O` [SA 128], the “LTR-III ΔTm” value in series [2] was 0.1 °C.

Take `CCCC1=N/C(=C\c2ccncc2)C(=O)N1C` [M 2237]: the “LTR-III ΔTm” value in series [2] was -0.3 °C.

As to `COc1ccc(-c2c(C(=O)OC(C)C)noc2C(=O)N2CCCCC2)cc1` [SA 375], the “LTR-III ΔTm” value in series [2] is -0.4 °C.

Regarding `CC1=NC(=Cc2cc3c4c(c2)CCCN4CCC3)C(=O)N1CCCC(=O)O` [N 152], the “LTR-III ΔTm” value in series [2] is 0.3 °C.

As for `CC1=NC(=Cc2ccnc3ccccc23)C(=O)N1C` [SA 471], the “LTR-III ΔTm” value in series [2] was -0.1 °C.

For `CSC1=NC(=Cc2ccc(N(C)C)cc2)C(=O)N1` [AL 166.1], the “LTR-III ΔTm” value in series [2] came to 0.1 °C.

Regarding `CN(C)c1ccc(C=C2NC(=S)NC2=O)cc1` [AL 165], in series [2], the “LTR-III ΔTm” value was -0.2 °C.

`CCN(CC)c1ccc(C=C2N=C(C)N(C)C2=O)cc1` [GC 04]: the “LTR-III ΔTm” value in series [2] worked out at 0 °C.

With `CNC(=O)C(=Cc1ccc(C#N)cc1)N=P(c1ccccc1)(c1ccccc1)c1ccccc1` [N 831], in series [2], the “LTR-III ΔTm” value is 0 °C.

For `CCN(CC)c1ccc(/C=C2\N=C(C)N(C)C2=O)c(O)c1` [M 1933], the “LTR-III ΔTm” value in series [2] is -0.3 °C.

For the compound `Oc1ccc2cc(Br)ccc2c1` [N 576.3], in series [2], the “LTR-III ΔTm” value amounted to 0 °C.

Regarding `CC1=NC(=Cc2ccc3c(c2)CCN3)C(=O)N1C` [N 652.3], the “LTR-III ΔTm” value in series [2] was 0.3 °C.

Consider `CCN(CC)c1ccc(C=C2N=C(C)N(C)C2=O)cc1` [GC 01], for which the “LTR-III ΔTm” value in series [2] was 0.4 °C.

Turning to `O=C1/C(=C/c2cccs2)N=C(/C=C/c2ccc(O)cc2)N1CCc1ccc(O)cc1` [MID 161], the EC50 in series [3] (Human immunodeficiency virus 1, NL43, 216 h, Table S12, CPE, nine-day incubation, read-out: EC50) came to 7.7 ± 2.2 µM. Moreover, the EC50 in series [3] (Human immunodeficiency virus 1, NL43, Figure 7, read-out: Antiviral activity EC50 (HIV)) amounted to 8 ± 2 µM. The compound also showed a 50% cytotoxic concentration (CC50) at 9 days in series [4] (MT4 cells (human T cell leukemia)) of 17 ± 5 µM. In addition, in series [1], the “СС50 (MT4)” value was found to be 17.3 ± 5.7 µM. In series [2], the “LTR III stabilization” value was under 1 °C, the “LTR-III ΔTm” value is -2.6 °C and the “LTR-III (average)” value was -1,7 °C.

Regarding `CC(C)OC(=O)c1noc(C(=O)NCc2ccccc2)c1-c1ccc(N(C)C)cc1` [SA 332E1], the “LTR-III ΔTm” value in series [2] is -0.6 °C.

Turning to `CN(C)C=CC1=NC(=Cc2ccc(O)cc2)C(=O)N1C` [M 995a], the “LTR-III ΔTm” value in series [2] worked out at 0.1 °C.

For `CC(C)OC(=O)c1noc(C(=O)NC2CCCCC2)c1-c1ccccc1F` [SA 331D], the “LTR-III ΔTm” value in series [2] is -0.7 °C.

Take `CC1=NC(=Cc2ccc(O)cc2Br)C(=O)N1C` [ZS 174]: in series [2], the “LTR-III ΔTm” value is -0.3 °C.

On to `CN1C(=O)C(=Cc2ccc(O)cc2N(C)C)N=C1C=Cc1ccncc1` [MID 213], for which the “LTR-III ΔTm” value in series [2] came out at 0.9 °C.

For `CC1=NC(=Cc2cccc(O)c2)C(=O)N1C` [M 1300], the “LTR-III ΔTm” value in series [2] was 0.2 °C.

(Values after publication PMC8533149 (Biomolecules, 2021).)
